ChEMBL document CHEMBL1201862, “PubChem BioAssay data set” (2004)
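Assay format: 96-well plates, 48-hour exposure. GI50 marks 50% less growth.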 The source made the active and inactive calls. Cut-off read from the data, not from the text of the source: active = GI50 up to about 1.1 µM and inactive = higher.

Tests used:
Test in all cases: growth of human tumour cells (NCI), 48 h
786-0 = system: 786-0
ACHN = system: ACHN
CAKI-1 = system: CAKI-1
COLO 205 = system: COLO 205
HCC 2998 = system: HCC 2998
HCT-15 = system: HCT-15
IGROV-1 = system: IGROV-1
Malme-3M = system: Malme-3M
NCI-H23 = system: NCI-H23
SF-539 = system: SF-539
SN12C = system: SN12C
HL-60 = system: HL-60
TK-10 = system: TK-10

Row | Compound | GI50 (786-0) | GI50 (ACHN) | GI50 (CAKI-1) | GI50 (COLO 205) | GI50 (HCC 2998) | GI50 (HCT-15) | GI50 (IGROV-1) | GI50 (Malme-3M) | GI50 (NCI-H23) | GI50 (SF-539) | GI50 (SN12C) | GI50 (HL-60) | GI50 (TK-10)
1 | CCOC(=O)C(=O)Nc1nc2c(s1)C(=O)c1ccccc1C2=O | 17.4 µM (inactive) | 14.9 µM (inactive) | 18.5 µM (inactive) | 22.5 µM (inactive) | 17.7 µM (inactive) | 15.6 µM | 19.1 µM (inactive) | 12.3 µM (inactive) | 13.5 µM (inactive) | 17.7 µM (inactive) | 16.5 µM (inactive) |  | 
2 | Cc1ccc(/N=C/c2ccc3c(c2)OCO3)cc1C | > 100 µM (inactive) | > 100 µM (inactive) | > 100 µM (inactive) | > 100 µM (inactive) |  | > 100 µM | > 100 µM (inactive) | > 100 µM (inactive) | > 100 µM (inactive) | > 100 µM (inactive) | > 100 µM (inactive) | > 100 µM (inactive) | > 100 µM (inactive)
3 | CCCCN/C(=N/C#N)NCc1ccccc1 | > 100 µM (inactive) | > 100 µM (inactive) | > 100 µM (inactive) | > 100 µM (inactive) | 88.5 µM (inactive) | > 100 µM | > 100 µM (inactive) | > 100 µM (inactive) | > 100 µM (inactive) | > 100 µM (inactive) | > 100 µM (inactive) | > 100 µM (inactive) | > 100 µM (inactive)
4 | Cn1cc2ccccc2c1-c1nc(F)nc(Oc2ccc3c(c2)CC[C@@H]2C3CC[C@@]3(C)C2CC[C@@H]3O)n1 (some centres not stated) | 8.91 µM (inactive) | 17.7 µM (inactive) | 11.6 µM (inactive) | 21.8 µM (inactive) | 18.3 µM (inactive) | 6.18 µM | 6.78 µM (inactive) | 15.5 µM (inactive) | 10.3 µM (inactive) | 12.8 µM (inactive) | 7.87 µM (inactive) | 3.81 µM (inactive) | 13.7 µM (inactive)
5 | O=C1[C@H]2ON(c3ccccc3)C(c3ccco3)[C@H]2C(=O)N1c1ccc(Cc2ccc(N3C(=O)[C@@H]4ON(c5ccccc5)C(c5ccco5)[C@@H]4C3=O)cc2)cc1 (some centres not stated) | > 100 µM (inactive) | > 100 µM (inactive) | > 100 µM (inactive) | 78.2 µM (inactive) | > 100 µM (inactive) | > 100 µM | > 100 µM (inactive) | > 100 µM (inactive) | > 100 µM (inactive) | > 100 µM (inactive) | > 100 µM (inactive) | > 100 µM (inactive) | 
6 | COC(=O)C1=C(C)C(=O)C2(CCCCCC2C(=O)OC)C1 (configuration not stated) | > 100 µM (inactive) | > 100 µM (inactive) | > 100 µM (inactive) | > 100 µM (inactive) | > 100 µM (inactive) | > 100 µM | > 100 µM (inactive) | > 100 µM (inactive) | > 100 µM (inactive) | 63.7 µM (inactive) | > 100 µM (inactive) | > 100 µM (inactive) | > 100 µM (inactive)
7 | CC(=O)OCCc1cccnc1/C=N/O | > 100 µM (inactive) | > 100 µM (inactive) | > 100 µM (inactive) | > 100 µM (inactive) | > 100 µM (inactive) | > 100 µM | > 100 µM (inactive) | > 100 µM (inactive) | > 100 µM (inactive) | > 100 µM (inactive) | > 100 µM (inactive) | > 100 µM (inactive) | > 100 µM (inactive)
8 | O=c1cc(-c2ccc(O)cc2)oc2cc(O)cc(O)c12 [APIGENIN] | 34.3 µM (inactive) | 15.1 µM (inactive) |  | 38.9 µM (inactive) | 23.9 µM (inactive) | 28.1 µM | 28.6 µM (inactive) | 33.9 µM (inactive) | 17.8 µM (inactive) | > 10 µM (inactive) | 30.4 µM (inactive) | 29.7 µM (inactive) | 41.2 µM (inactive)
9 | O=C1CCC2CCOc3ccc(O)c1c32 (configuration not stated) | > 100 µM (inactive) | > 100 µM (inactive) |  | > 100 µM (inactive) | > 100 µM (inactive) | > 100 µM | > 100 µM (inactive) | > 100 µM (inactive) | > 100 µM (inactive) | > 100 µM (inactive) | > 100 µM (inactive) | > 100 µM (inactive) | > 100 µM (inactive)
10 | O=C(O)CC1CC=C[C@H]2c3cc4c(cc3C(=O)NC12)OCO4 (some centres not stated) | > 75 µM (inactive) | > 75 µM (inactive) |  | > 75 µM (inactive) | > 75 µM (inactive) | > 75 µM | > 75 µM (inactive) | > 75 µM (inactive) | > 75 µM (inactive) | > 75 µM (inactive) | > 75 µM (inactive) | > 75 µM (inactive) | > 75 µM (inactive)
11 | COc1cc(O)c(C(=O)/C=C/c2ccc(OC)c(OCc3ccccc3)c2)c(OC)c1 | > 100 µM (inactive) | 5.58 µM (inactive) | > 100 µM (inactive) | 0.0446 µM (active) | 46.9 µM (inactive) | 10.3 µM | > 100 µM (inactive) |  | 6.52 µM (inactive) | > 100 µM (inactive) | > 100 µM (inactive) | 8.67 µM (inactive) | > 100 µM (inactive)
12 | CCCN(CCC)C(=O)c1nc(N)nc(-c2ccc(OC)cc2)c1-c1ccc(OC)cc1 | > 100 µM (inactive) | > 100 µM (inactive) | > 100 µM (inactive) | > 100 µM (inactive) |  | > 100 µM | > 100 µM (inactive) | > 100 µM (inactive) | > 100 µM (inactive) | > 100 µM (inactive) | > 100 µM (inactive) | 73.8 µM (inactive) | > 100 µM (inactive)
